Like-named read-outs stand apart in the source and are kept apart here.
Type: in vivo, SD rats
Procedure: A subchronic toxicity study was performed for PP2S. Female and male rats were divided into a control group (0 mg/kg/day, n = 15), a low-dose group (167 mg/kg/day, n = 10), a medium-dose group (500 mg/kg/day, n = 10), and a high-dose group (1,500 mg/kg/day, n = 15), respectively. Thus, there were a total of 8 groups. The drug was administered by oral gavage at 10 mL/kg body weight daily for 4 weeks. Five animals each in the control and high-dose groups continued their treatments for 2 more weeks. Clinical symptoms were observed, and body weight was measured during the test period for a total of 6 weeks; 0.5% methyl cellulose 1,500 cP (Sigma, USA) in water for injection (JW Pharmaceutical, Korea) was used as a vehicle. Control animals were treated with only the same volume of the vehicle.
Histopathological examination was performed while performing a 4-week repeated oral toxicity study for PP2S. Organs and tissues from all animals subjected to autopsy were removed and fixed in 10% neutral buffered formalin. Among them, testes, eyeballs and optic nerve were fixed in Davidson's fixative and then in 10% neutral buffered formalin. For organs/tissues subjected to histopathological examination, specimens were prepared according to the histopathological specimen preparation SOP. For histopathological examination, organs and tissues of all subjects in the control group and the high-dose group, and macroscopically observed subjects in the low-dose group were examined. […] In addition, all other changes observed in histopathological examination were judged to be spontaneous or accidental. Those not specifically observed for all groups by organ were marked with a 'dash' symbol. Grade 1, minimal; Grade 2, slight; Grade 3, moderate; Grade 4, severe.

[1] = female, G4 1,500 mg/kg, recovery period, n=5
[2] = male, G2 167 mg/kg, dosing period, n=10
[3] = male, G3 500 mg/kg, dosing period, n=10
[4] = male, G4 1,500 mg/kg, dosing period, n=10
[5] = male, G4 1,500 mg/kg, recovery period, n=5

CCCCOc1ccc2cc(CN3C(=O)CC[C@H]3C(=O)OC)c3cc(OC)c(OC)cc3c2c1 [PP2S, Methyl (S)-1-((3-butoxy-6,7-dimethoxyphenanthren-9-yl)methyl)-5-oxopyrrolidine-2-carboxylate]
Kidney: Mineralization, medulla, Grade 1, no. of animals [1]: 0 | Liver: Extramedullary hematopoiesis, Grade 1, no. of animals [1]: 0 | Liver: Fatty change, sporadic/periportal, Grade 1, no. of animals [1]: 2 | Liver: Fatty change, sporadic/periportal, Grade 2, no. of animals [1]: 0 | Liver: Infiltrate, mononuclear cell, focal, Grade 1, no. of animals [1]: 4 | Liver: Infiltrate, mononuclear cell, focal, Grade 2, no. of animals [1]: 0 | Lung including bronchi: Alveolar macrophage aggregation, focal, Grade 1, no. of animals [1]: 0 | Lung including bronchi: Infiltrate, mononuclear cell, alveolar, focal, Grade 1, no. of animals [1]: 1 | Pituitary gland: Cyst, pars nervosa, Presence, no. of animals [1]: 0 | Prostate: Infiltrate, inflammatory cell, interstitium, Grade 1, no. of animals [1]: 0 | Salivary gland (parotid): Focus, hypertrophic, basophilic, focal, Grade 1, no. of animals [1]: 0 | Spleen: Pigmentation, Grade 1, no. of animals [1]: 5 | Submandibular lymph node: Increased, plasma cell, Grade 2, no. of animals [1]: 0 | Thyroid gland: Ectopic thymus, Presence, no. of animals [1]: 1 | Thyroid gland: Ultimobranchial cyst, Presence, no. of animals [1]: 2 | Adrenal gland: Vacuolation, cortical, diffuse, Grade 1, no. of animals [2]: 0 | Adrenal gland: Vacuolation, cortical, diffuse, Grade 2, no. of animals [2]: 0 | Epididymis: Infiltrate, inflammatory cell, interstitum, Grade 1, no. of animals [2]: 0 | Eye: Dysplasia, retina, focal, Grade 1, no. of animals [2]: 0 | Harderian gland: Infiltrate, inflammatory cell, focal, Grade 1, no. of animals [2]: 0 | Kidney: Basophilia, tubule, cortex, Grade 1, no. of animals [2]: 0 | Kidney: Cast, hyaline, cortex, Grade 1, no. of animals [2]: 0 | Kidney: Hydronephrosis, unilateral, Grade 3, no. of animals [2]: 0 | Kidney: Infiltrate, inflammatory cell, interstitium, Grade 1, no. of animals [2]: 0 | Kidney: Infiltrate, inflammatory cell, interstitium, Grade 2, no. of animals [2]: 0 | Kidney: Mineralization, cortex, Grade 1, no. of animals [2]: 0 | Kidney: Mineralization, corticomedullary junction, Grade 1, no. of animals [2]: 0 | Kidney: Mineralization, medulla, Grade 1, no. of animals [2]: 0 | Liver: Extramedullary hematopoiesis, Grade 1, no. of animals [2]: 0 | Liver: Fatty change, sporadic/periportal, Grade 1, no. of animals [2]: 0 | Liver: Fatty change, sporadic/periportal, Grade 2, no. of animals [2]: 0 | Liver: Infiltrate, mononuclear cell, focal, Grade 1, no. of animals [2]: 0 | Liver: Infiltrate, mononuclear cell, focal, Grade 2, no. of animals [2]: 0 | Lung including bronchi: Alveolar macrophage aggregation, focal, Grade 1, no. of animals [2]: 0 | Lung including bronchi: Infiltrate, mononuclear cell, alveolar, focal, Grade 1, no. of animals [2]: 0 | Pituitary gland: Cyst, pars nervosa, Presence, no. of animals [2]: 0 | Prostate: Infiltrate, inflammatory cell, interstitium, Grade 1, no. of animals [2]: 0 | Salivary gland (parotid): Focus, hypertrophic, basophilic, focal, Grade 1, no. of animals [2]: 0 | Spleen: Pigmentation, Grade 1, no. of animals [2]: 0 | Submandibular lymph node: Increased, plasma cell, Grade 2, no. of animals [2]: 1 | Thyroid gland: Ectopic thymus, Presence, no. of animals [2]: 0 | Thyroid gland: Ultimobranchial cyst, Presence, no. of animals [2]: 0 | Adrenal gland: Vacuolation, cortical, diffuse, Grade 1, no. of animals [3]: 0 | Adrenal gland: Vacuolation, cortical, diffuse, Grade 2, no. of animals [3]: 0 | Epididymis: Infiltrate, inflammatory cell, interstitum, Grade 1, no. of animals [3]: 0 | Eye: Dysplasia, retina, focal, Grade 1, no. of animals [3]: 0 | Harderian gland: Infiltrate, inflammatory cell, focal, Grade 1, no. of animals [3]: 0 | Kidney: Basophilia, tubule, cortex, Grade 1, no. of animals [3]: 0 | Kidney: Cast, hyaline, cortex, Grade 1, no. of animals [3]: 0 | Kidney: Hydronephrosis, unilateral, Grade 3, no. of animals [3]: 0 | Kidney: Infiltrate, inflammatory cell, interstitium, Grade 1, no. of animals [3]: 0 | Kidney: Infiltrate, inflammatory cell, interstitium, Grade 2, no. of animals [3]: 0 | Kidney: Mineralization, cortex, Grade 1, no. of animals [3]: 0 | Kidney: Mineralization, corticomedullary junction, Grade 1, no. of animals [3]: 0 | Kidney: Mineralization, medulla, Grade 1, no. of animals [3]: 0 | Liver: Extramedullary hematopoiesis, Grade 1, no. of animals [3]: 0 | Liver: Fatty change, sporadic/periportal, Grade 1, no. of animals [3]: 0 | Liver: Fatty change, sporadic/periportal, Grade 2, no. of animals [3]: 0 | Liver: Infiltrate, mononuclear cell, focal, Grade 1, no. of animals [3]: 0 | Liver: Infiltrate, mononuclear cell, focal, Grade 2, no. of animals [3]: 0 | Lung including bronchi: Alveolar macrophage aggregation, focal, Grade 1, no. of animals [3]: 0 | Lung including bronchi: Infiltrate, mononuclear cell, alveolar, focal, Grade 1, no. of animals [3]: 0 | Pituitary gland: Cyst, pars nervosa, Presence, no. of animals [3]: 0 | Prostate: Infiltrate, inflammatory cell, interstitium, Grade 1, no. of animals [3]: 0 | Salivary gland (parotid): Focus, hypertrophic, basophilic, focal, Grade 1, no. of animals [3]: 0 | Spleen: Pigmentation, Grade 1, no. of animals [3]: 0 | Submandibular lymph node: Increased, plasma cell, Grade 2, no. of animals [3]: 0 | Thyroid gland: Ectopic thymus, Presence, no. of animals [3]: 0 | Thyroid gland: Ultimobranchial cyst, Presence, no. of animals [3]: 0 | Adrenal gland: Vacuolation, cortical, diffuse, Grade 1, no. of animals [4]: 3 | Adrenal gland: Vacuolation, cortical, diffuse, Grade 2, no. of animals [4]: 1 | Epididymis: Infiltrate, inflammatory cell, interstitum, Grade 1, no. of animals [4]: 1 | Eye: Dysplasia, retina, focal, Grade 1, no. of animals [4]: 0 | Harderian gland: Infiltrate, inflammatory cell, focal, Grade 1, no. of animals [4]: 1 | Kidney: Basophilia, tubule, cortex, Grade 1, no. of animals [4]: 3 | Kidney: Cast, hyaline, cortex, Grade 1, no. of animals [4]: 1 | Kidney: Hydronephrosis, unilateral, Grade 3, no. of animals [4]: 0 | Kidney: Infiltrate, inflammatory cell, interstitium, Grade 1, no. of animals [4]: 7 | Kidney: Infiltrate, inflammatory cell, interstitium, Grade 2, no. of animals [4]: 1 | Kidney: Mineralization, cortex, Grade 1, no. of animals [4]: 0 | Kidney: Mineralization, corticomedullary junction, Grade 1, no. of animals [4]: 0 | Kidney: Mineralization, medulla, Grade 1, no. of animals [4]: 0 | Liver: Extramedullary hematopoiesis, Grade 1, no. of animals [4]: 1 | Liver: Fatty change, sporadic/periportal, Grade 1, no. of animals [4]: 4 | Liver: Fatty change, sporadic/periportal, Grade 2, no. of animals [4]: 0 | Liver: Infiltrate, mononuclear cell, focal, Grade 1, no. of animals [4]: 4 | Liver: Infiltrate, mononuclear cell, focal, Grade 2, no. of animals [4]: 0 | Lung including bronchi: Alveolar macrophage aggregation, focal, Grade 1, no. of animals [4]: 0 | Lung including bronchi: Infiltrate, mononuclear cell, alveolar, focal, Grade 1, no. of animals [4]: 2 | Pituitary gland: Cyst, pars nervosa, Presence, no. of animals [4]: 1 | Prostate: Infiltrate, inflammatory cell, interstitium, Grade 1, no. of animals [4]: 2 | Salivary gland (parotid): Focus, hypertrophic, basophilic, focal, Grade 1, no. of animals [4]: 0 | Spleen: Pigmentation, Grade 1, no. of animals [4]: 0 | Submandibular lymph node: Increased, plasma cell, Grade 2, no. of animals [4]: 0 | Thyroid gland: Ectopic thymus, Presence, no. of animals [4]: 0 | Thyroid gland: Ultimobranchial cyst, Presence, no. of animals [4]: 2 | Adrenal gland: Vacuolation, cortical, diffuse, Grade 1, no. of animals [5]: 3 | Adrenal gland: Vacuolation, cortical, diffuse, Grade 2, no. of animals [5]: 0 | Epididymis: Infiltrate, inflammatory cell, interstitum, Grade 1, no. of animals [5]: 0 | Eye: Dysplasia, retina, focal, Grade 1, no. of animals [5]: 0 | Harderian gland: Infiltrate, inflammatory cell, focal, Grade 1, no. of animals [5]: 0 | Kidney: Basophilia, tubule, cortex, Grade 1, no. of animals [5]: 1 | Kidney: Cast, hyaline, cortex, Grade 1, no. of animals [5]: 3 | Kidney: Hydronephrosis, unilateral, Grade 3, no. of animals [5]: 0 | Kidney: Infiltrate, inflammatory cell, interstitium, Grade 1, no. of animals [5]: 0 | Kidney: Infiltrate, inflammatory cell, interstitium, Grade 2, no. of animals [5]: 0 | Kidney: Mineralization, cortex, Grade 1, no. of animals [5]: 0 | Kidney: Mineralization, corticomedullary junction, Grade 1, no. of animals [5]: 0 | Kidney: Mineralization, medulla, Grade 1, no. of animals [5]: 0 | Liver: Extramedullary hematopoiesis, Grade 1, no. of animals [5]: 1 | Liver: Fatty change, sporadic/periportal, Grade 1, no. of animals [5]: 2 | Liver: Fatty change, sporadic/periportal, Grade 2, no. of animals [5]: 0 | Liver: Infiltrate, mononuclear cell, focal, Grade 1, no. of animals [5]: 3 | Liver: Infiltrate, mononuclear cell, focal, Grade 2, no. of animals [5]: 0 | Lung including bronchi: Alveolar macrophage aggregation, focal, Grade 1, no. of animals [5]: 0 | Lung including bronchi: Infiltrate, mononuclear cell, alveolar, focal, Grade 1, no. of animals [5]: 0 | Pituitary gland: Cyst, pars nervosa, Presence, no. of animals [5]: 0 | Prostate: Infiltrate, inflammatory cell, interstitium, Grade 1, no. of animals [5]: 1 | Salivary gland (parotid): Focus, hypertrophic, basophilic, focal, Grade 1, no. of animals [5]: 0 | Spleen: Pigmentation, Grade 1, no. of animals [5]: 3 | Submandibular lymph node: Increased, plasma cell, Grade 2, no. of animals [5]: 0 | Thyroid gland: Ectopic thymus, Presence, no. of animals [5]: 0 | Thyroid gland: Ultimobranchial cyst, Presence, no. of animals [5]: 1
